≈ marks a conversion by molar mass, not a printed value.
Legend:
[1] = system: HIV-1 AZT-resistant strain 018c P24 antigen; assay: Inhibition of HIV-1 018c P24 antigen in PBMC cell culture; assay type: cell-based; conditions: for EC50: Human immunodeficiency virus 1, PBMC, 2 h, PBMC, administration after adsorbing 2 hours; for EC50 / SI: 018c; for SI: SI=CC50/EC50
Procedure: (§1) Collect cells with curette, infect cells with 10^−2 AZT sensitive (018a) or AZT resistant (018c) virus strain liquid, and adsorb for 2 hours, Wash off unabsorbed virus with 1640 culture medium without serum, prepare cells infected by virus to 1×10^6/ml with culture solution, and inoculate on 96-pore culture plate, 100 μl/pore. […] Set cell control group and virus infected cell control group. Incubate under 37° C. and 5% CO2. On the fourth day (96 hours), pipette out the supernatant liquid and store under −20° C. for determination of HIV-1 P24 antigen titer and calculation of drug inhibitory action. Add MTT staining to cells for determination of cytotoxicity. Determination of cytotoxicity by MTT staining: Add 10 μl of 5 mg/ml MTT stain into each pore, continue to incubate under 37° C., 5% CO2 and saturated humidity for 4 hours. […] Determine the HIV-1 P24 antigen titer according to the operation procedure provided by the HIV-1 P24 antigen reagent kit. Compare the drug-added group with virus control group. […] Calculation method of 50% toxic concentration (CC50), 50% effective concentration (EC50) and selection index (SI):
(§2) (3) Calculation Method of Selection Index (SI) on HIV-1 P24 Antigen in Cell Culture SI=CC50/EC50

[2] = molecular target: T1, progestogen receptor (PRa) (Homo sapiens, UniProt P06401); assay: Binding activity on human nuclear receptor PR; conditions: mean ± SD, n = 4
T1 sequence (P06401 1-769 isoform P06401-2): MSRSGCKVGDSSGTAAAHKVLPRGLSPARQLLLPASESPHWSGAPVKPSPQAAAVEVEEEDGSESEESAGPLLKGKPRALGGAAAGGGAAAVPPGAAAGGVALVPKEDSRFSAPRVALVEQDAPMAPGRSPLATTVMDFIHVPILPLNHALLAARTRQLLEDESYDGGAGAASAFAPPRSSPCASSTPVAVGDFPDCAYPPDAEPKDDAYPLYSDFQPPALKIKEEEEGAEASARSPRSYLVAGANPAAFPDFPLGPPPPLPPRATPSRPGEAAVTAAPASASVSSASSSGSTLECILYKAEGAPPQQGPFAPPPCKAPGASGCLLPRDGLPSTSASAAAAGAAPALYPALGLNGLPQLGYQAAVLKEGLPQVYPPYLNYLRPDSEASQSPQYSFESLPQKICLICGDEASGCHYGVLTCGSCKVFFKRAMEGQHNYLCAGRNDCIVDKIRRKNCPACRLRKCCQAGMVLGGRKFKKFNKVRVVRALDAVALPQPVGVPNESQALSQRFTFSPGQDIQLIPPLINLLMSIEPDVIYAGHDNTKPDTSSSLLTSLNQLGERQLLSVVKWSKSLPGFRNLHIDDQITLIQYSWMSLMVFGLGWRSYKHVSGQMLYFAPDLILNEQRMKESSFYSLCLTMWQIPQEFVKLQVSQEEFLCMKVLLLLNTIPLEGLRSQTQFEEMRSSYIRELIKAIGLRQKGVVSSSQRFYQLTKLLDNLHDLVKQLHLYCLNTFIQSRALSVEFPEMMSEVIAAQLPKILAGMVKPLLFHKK
Procedure: Buffer solution is composed of 25 mM NaPO4, 20 mM NaMoO4, 10 mM KF and 10% glycerol (pH=7.3) and stored under 4° C. Stock solution is prepared with CHAPS and DTT and stored under −20° C. […] Add 2.5 μl/hole into 96-pore plate. Take out appropriate amount of buffer solution reserve into solution to make the final concentration of CHAPS and DDT to become 0.25 mM and 2 mM respectively. Add protease inhibitors (aprotinin and leupeptin) to make its final concentration to become 1 μg/μl, and place in an ice bath. After adding human nuclear receptor GR (1:8), PR (1:100), ER (1:2000), AR (1:200) and MR (1:40) into the reaction system respectively, adequately mix suitable quantity of [^3H]-dexamethasone, [^3H]-progesterone, [^3H]-estradiol and [^3H]-DHT (from Amersham), rapidly add into 96-pore plate (100 μl/pore) and incubate overnight under 4° C. On the next day, add 25 μl of hydroxyapatite suspension into each pore and mix with shaking. After incubating for 10 min, separate by centrifuge for 3 min at 2500 rpm. The precipitate is washed with 100 μl of buffer solution and separated by centrifuge twice. Add 150 μl of scintillation solution (from Perkin Elmer) into each pore, mix with shaking and count by MicroBeta counter.

[3] = system: HIV-1 AZT-sensitive strain 018a P24 antigen; assay: Inhibition of HIV-1 018a P24 antigen in PBMC cell culture; assay type: cell-based; conditions: for EC50: Human immunodeficiency virus 1, PBMC, 2 h, administration after adsorbing 2 hours
Procedure: as §1, §2

[4] = system: MT-4 cells; assay: Cytotoxicity in MT-4 cell culture by cytopathic method (CPE); assay type: cell-based, human
Procedure: (§3) Set virus TCID50 determination group and cell control group. Each concentration is duplicated in two pore. Incubate under 37° C., 5% CO2 and saturated humidity in an incubator. Daily observe the cytopathy in above culture plate by microscope, record the degree of cytopathy with routine method, and calculate the 50% toxic concentration (TC50) and maximum nontoxic concentration (TC0) of drug according to Reed & Muench method. […] [formula]

[5] = as above; assay type: cell-based, human; conditions: human, MT-4 cells infected with HIV-1 IIIB, read-out: Cytotoxicity TC50, CPE
Procedure: as §3

**Q.** Which EC50 ([1]; Average) does the source give for `CC#C[C@]1(O)CC[C@H]2[C@@H]3CCC4=CC(=O)CCC4=C3[C@@H](c3ccc(N(C)C4CCCCC4)cc3)C[C@@]21C` [Cymipristone, 11β-[4-(N-methyl-N-cyclohexylamino)phenyl]-17α-(1-propynyl)-17β-hydroxyl-4,9-estradiene-3-one] here?
**A.** 7.9 µg/mL (≈ 15.9 µM)

**Q.** What about the EC50 ([1]; Experiment 1) of the same molecule?
**A.** 8.42 µg/mL (≈ 16.9 µM)

**Q.** What about the EC50 ([1]; Experiment 2) of the same molecule?
**A.** 7.38 µg/mL (≈ 14.8 µM)

**Q.** And the SI ([1]; Average)?
**A.** 13.18

**Q.** What about the SI ([1]; Experiment 1) of the same molecule?
**A.** 12.21

**Q.** And the SI ([1]; Experiment 2)?
**A.** 14.15

**Q.** What about the “Cross resistance with zidovudine (AZT) (in words)” value ([1]; conclusion) of the same molecule?
**A.** no cross resistance

**Q.** And the IC50 [2]?
**A.** 0.0052 ± 0.00026 µM

**Q.** What about the EC50 ([3]; Average, PBMC) of the same molecule?
**A.** 12.4 µg/mL (≈ 24.8 µM)

**Q.** What about the EC50 ([3]; Experiment 1, PBMC) of the same molecule?
**A.** 12.5 µg/mL (≈ 25.1 µM)

**Q.** And the EC50 ([3]; Experiment 2, PBMC)?
**A.** 12.2 µg/mL (≈ 24.6 µM)

**Q.** And the SI ([3]; SI=CC50/EC50, Average)?
**A.** 10.53

**Q.** What about the SI ([3]; SI=CC50/EC50, Experiment 1) of the same molecule?
**A.** 8.30

**Q.** And the SI ([3]; SI=CC50/EC50, Experiment 2)?
**A.** 12.76

**Q.** And the “Cytotoxicity TC50, CPE” value [4]?
**A.** 7.704 µg/mL

**Q.** What about the CC50 [5] of the same molecule?
**A.** 15.5 µM

From patent publication US20090111781A1, “Use of Cymipristone Type Compounds in Aids Treatment” (SHANGHAI THREE-ALLIANCE BIOTECHNOLOGIES CO., LTD., priority 2005, published 2009)
